The values that follow come from paper PMC6455008, “Methylation at the C-3′ in D-Ring of Strigolactone Analogs Reduces Biological Activity in Root Parasitic Plants and Rice” (Frontiers in Plant Science, 2019).

One experiment concerns the target T1, ShHTL7 (Striga hermonthica, UniProt A0A0M3PNA2).
T1 sequence (A0A0M3PNA2 1-271): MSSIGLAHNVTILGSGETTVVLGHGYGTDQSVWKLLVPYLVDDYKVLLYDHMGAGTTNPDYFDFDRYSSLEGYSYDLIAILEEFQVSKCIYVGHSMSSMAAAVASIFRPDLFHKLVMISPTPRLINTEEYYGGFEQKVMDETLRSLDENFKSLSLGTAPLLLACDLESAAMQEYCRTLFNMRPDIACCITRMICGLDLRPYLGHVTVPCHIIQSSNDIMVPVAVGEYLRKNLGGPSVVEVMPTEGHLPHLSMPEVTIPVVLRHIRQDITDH
Nature of the experiment: In vitro YLG hydrolysis competition assay, ShHTL7. Format: biochemical. Conditions: 3.0 μM protein, 1.0 μM YLG, 60 min, room temperature; read-out: IC50, competitive inhibition of ShHTL7-mediated YLG hydrolysis. The procedure:
Protein expression and purification of ShHTL7 and Oryza sativa D14 (OsD14) was carried out according to the procedure described earlier ([Jamil et al., 2018]). In vitro Yoshimulactone Green (YLG) hydrolysis assays ([Tsuchiya et al., 2015]) were carried out using 3.0 μM of protein ShHTL7 and OsD14 in a reaction buffer (1X PBS buffer, pH 7.3) with 0.1% DMSO at a 100-μl volume on a 96-well black plate (Greiner). For competitive assays, rac-GR24, AR8, MP13, and MP26 (at range between 0.01 and 50 μM) were co-incubated with 1.0 μM of YLG (Tokyo Chemical Industry Co. Ltd., product number E1238) for 60 min at room temperature. Fluorescent intensity was measured by spectraMax i5 (Molecular Devices) at excitation by 480 nm and detection by 520 nm. The change in fluorescence observed over the course of 1 h of YLG in buffer without protein was subtracted from the data collected in presence of protein. IC50 values were calculated by GraphPad (Prism 7).

In another experiment the test system is S. hermonthica seeds. Nature of the experiment: Parasitic seed germination bioassay, Striga. Format: in vivo, Striga hermonthica. Conditions: for Striga germination rate: 1.0 μM, formulated and non-formulated, 24 h at 30°C; for EC50: Striga hermonthica.
Another experiment deals with Striga. Nature of the experiment: Striga emergence after formulated MP13 in naturally infested farmer's field (pearl millet host). Format: in vivo. The procedure: A naturally Striga-infested farmer’s field was selected near Kouaré research station ([…], 0°30′W) (Fada N’Gourma, Burkina Faso) to test suicidal activity of formulated MP13, taking formulated water treatment as control treatment. After onset of few rains, the field was thoroughly prepared by subsequent ploughing and planking. The experiment was laid out in a randomized complete block design with four plots or replications. Each plot consisted of two 3-m-long mounds and spaced with one mound between rows. Formulated MP13 and normal water (control) were applied twice in each plot (25 ml m^−2) following rains (~10 mm) to get a final concentration of 0.5 μM. Local pearl millet crop was sown at least 1 week after the second application. Data on the number of emerged Striga plants at three counting dates were collected in both fields on a plot basis. The three Striga counts were then used to calculate the average number of emerged Striga plants throughout the season.

The subject of another experiment is rice d10 mutant. The experiment in a line: Rice micro tillering bioassay (d10 mutant, hydroponic). Format: in vivo. Conditions: for inhibition at 2.5 µM: Oryza sativa, read-out: tillering inhibition; for number of tillers per plant: SL-deficient d10 mutant, hydroponic, twice a week up to 3 weeks, untreated d10 six tillers. The procedure:
Rice seeds (d10) were sterilized with 2.5% sodium hypochlorite for 15 min. After thorough washing with sterile MilliQ water, the seeds were kept in water for 2 days at 30°C in the dark for imbibition and pre-germination. The pre-germinated seeds were then transferred to moist filter paper in 90-mm petri plates and incubated at 30°C overnight. The plates with germinated seeds were then shifted in a growth cabinet with fluorescent white light (130–180 μM m^−2 s^−1) for 1 week. Seven days-old seedlings were moved to 50-ml falcon tubes (one seedling per tube) containing modified half-strength Hoagland nutrient solution in greenhouse. After 1 week, rice plants were treated with 2.5 μM of each SL analog. Mock and GR24 (2.5 μM) were included as control treatments. Six applications of each SL analog were done two times in a week. After 3 weeks of application, number of tillers per plant, plant height, and fresh biomass were measured at final harvest.

[1] abbreviates: read-out: EC50 Striga seed germination, formulated.
Setting [2] is: read-out: EC50 Striga seed germination, non-formulated.

Like-named read-outs stand apart in the source and are kept apart here.

Protocol for S. hermonthica seeds: Germination activity of SL analogs on S. hermonthica and P. aegyptiaca seeds was tested by following the procedure described before ([Jamil et al., 2012]). The preconditioned Striga and Phelipanche seeds were treated with 50 μl of each SL analog solution at a concentration range (10^−5–10^−12 M). GR24 and sterile MilliQ water were included as positive and negative controls, respectively. The treated seeds were allowed to germinate in the dark for 24 h at 30°C (for Striga) and for 1 week at 25°C (for Phelipanche). The germinated and non-germinated seeds were counted under a binocular microscope, and germination rate (in %) was calculated.
Collected data were analyzed statistically using statistical software package R (version 3.2.2).

What is called IC50 is the concentration needed to halve the response being measured. The term EC50 denotes the midpoint of the concentration-response curve. As usually defined, the inhibition is the change of the read-out against control, counted positive when it falls. In the case of `CC1=CC(O/C=C(\C)C=O)OC1=O` (centres unmarked) [MP13, (E)-2-methyl-3-[(4-methyl-5-oxo-2,5-dihydrofuran-2-yl)oxy]acrylaldehyde], the IC50 at ShHTL7 worked out at 3870 ± 900 nM. The Striga germination rate with S. hermonthica seeds was 37–70%. The EC50 in the experiment with S. hermonthica seeds (setting [1]) came to 110 nM; in the experiment with S. hermonthica seeds (setting [2]), 640 nM. The “Striga emergence (No. per plot), change vs control” value in the experiment on Striga (formulated MP13, 0.5 μM, printed in Figure 8E) is reported as -41%. For the same compound, in the experiment with Striga (formulated MP13 applied twice, final conc. 0.5 μM, pearl millet, mock field 154), the “Striga plants counted at the end of the season” value is 91 plants m^−2. Moreover, in the experiment with rice d10 mutant, the inhibition at 2.5 µM stood at 23%. Further, in the experiment with rice d10 mutant (2.5 μM), the “number of tillers per plant” value was 4.5 tillers per plant.

For `COC(=O)/C=C/C(C)=C/OC1C=C(C)C(=O)O1` (centres unmarked) [MP26, (2E,4E)-methyl 4-methyl-5-(4-methyl-5-oxo-2,5-dihydrofuran-2-yloxy)penta-2,4-dienoate], at ShHTL7, the IC50 amounted to 5300 ± 710 nM. In addition, the Striga germination rate with S. hermonthica seeds was 37–70%. The figures for the 50% effective concentration (EC50) in the experiment on S. hermonthica seeds (setting [1]) and in the experiment with S. hermonthica seeds (setting [2]) were 98 nM and 350 nM, respectively. In the experiment with rice d10 mutant, the inhibition at 2.5 µM came out at 57%. In addition, the “number of tillers per plant” value with rice d10 mutant (2.5 μM) is 2.5 tillers per plant. For the same compound, in the experiment with rice d10 mutant (d10 mutant, 2.5 μM), the “plant height compared to mock” value is given as “significant increase in plant height”.

With `CC1=C(C)C(O/C=C(\C)C=O)OC1=O` (centres unmarked) [AR8, reference compound], the half-maximal inhibitory concentration (IC50) at ShHTL7 came to 6900 ± 970 nM. Besides, the Striga germination rate in the experiment on S. hermonthica seeds is 9%. Also, the figures for the EC50 in the experiment on S. hermonthica seeds (setting [1]) and in the experiment with S. hermonthica seeds (setting [2]) were 990 nM and 690000 nM, respectively. The “number of tillers per plant” value in the experiment on rice d10 mutant (2.5 μM) is recorded as 5.6 tillers per plant.
